In patent US20050192256A1, “Methods of using vitamin D compounds in the treatment of patients undergoing hemodialysis” (priority 2003, published 2005):

Experiments:
[1] = Vitamin D therapy and K/DOQI guidelines on hospitalization outcomes in hemodialysis patients (cohort, negative binomial regression); format: in vivo, human; settings: for annual hospitalizations (HOSP) and hospital days (DAYS), NoD group compared with treated group: NoD (N=3007) vs P (N=1318) or C (N=1432), therapy at least 180 days
Excerpt: An examination was made of the relationship between Vitamin D therapy and K/DOQI guidelines on hospitalization outcomes, as a surrogate for morbidity, in hemodialysis (HD) patients. The cohort consisted of U.S. patients who were new to HD during the period from January 1999 to December 2001 and who received paricalcitol (P), calcitriol (C) or no vitamin D (NoD) therapy for at least 180 days. To allow for patients to be stabilized after initiation to Vitamin D or NoD therapy, baseline laboratory values were defined over the initial 90-180 days of the observation period; mean values over this baseline period were assessed relative to K/DOQI guidelines. Patients with baseline laboratory measurements within K/DOQI guidelines served as reference groups. An interaction term was created to examine the relationship between Vitamin D therapy and the K/DOQI baseline assessment. Outcomes were defined by annual hospitalizations (HOSP) and hospital days (DAYS). Analysis was performed using negative binomial regression modeling.

[2] = Association of Vitamin D therapy, serum PTH and CaxP product quintiles with hospitalization outcomes in hemodialysis patients (cohort, negative binomial regression); format: in vivo, human; settings: for association between quintiles of PTH, CaxP and hospital outcomes (morbidity): interaction of laboratory quintiles and Vitamin D therapy
Excerpt: Elevated PTH and CaxP levels have been considered risk factors for increased mortality and morbidity (M&M) in HD patients. […] To date, the relationship between M&M, PTH, CaxP product and the impact of Vitamin D therapy, however, has not been addressed. Thus, by quintiles, an analysis was made of the baseline distribution of serum iPTH, and CaxP product levels in HD patients who received paricalcitol (P), calcitriol (C) or no Vitamin D (NoD) therapy in regard to their relationship with hospitalization outcomes as defined by hospitalizations per year (HOSP) and hospital days per year (DAYS). The cohort consisted of 11,340 adult patients new to HD between January 1999 and November 2001; there were 2,316 patients treated with P; 2,299 patients treated with C and 6,725 patients NoD.

[3] = recent data; cited from earlier work

Row | Compound | annual hospitalizations (HOSP) and hospital days (DAYS), NoD group compared with treated group ([1]; p<0.05) | increase in DAYS for patients outside of K/DOQI guidelines for Phos ([1]; interaction assessment, reference: patients within K/DOQI guidelines, p<0.05) [%] | DAYS in the 2nd quintile of CaxP compared to the reference group (3rd quintile) ([2]; human, in vivo) | association between quintiles of PTH, CaxP and hospital outcomes (morbidity) [2] | difference in outcomes for patients within K/DOQI guidelines compared to those outside of guidelines ([1]; HOSP and DAYS) | hospitalization outcomes, ranking among groups ([1]; P vs C vs NoD) | fewer DAYS (hospital days per year) compared to C group ([2]; 2,316 patients P vs 2,299 C, p=0.0036) [%] | fewer DAYS (hospital days per year) compared to NoD group ([2]; 2,316 patients P vs 6,725 NoD, p<0.0001) [%] | survival in HD patients [3]
1 | C=C1/C(=C\C=C2/CCC[C@]3(C)[C@@H]([C@H](C)CCCC(C)(C)O)CC[C@@H]23)C[C@@H](O)C[C@@H]1O [calcitriol, 1α,25-dihydroxy-vitamin D3] | significantly more HOSP and DAYS | 40 | significantly fewer DAYS | no significant associations | – | – | – | – | –
2 | C[C@H](/C=C/[C@H](C)C(C)(C)O)[C@H]1CC[C@H]2/C(=C/C=C3C[C@@H](O)C[C@H](O)C3)CCC[C@]12C [paricalcitol, 19-nor-1α,3β,25-trihydroxy-9,10-secoergosta-5(Z); 7(E),22(E)-triene] | significantly more HOSP and DAYS | – | – | not associated with morbidity | no significant difference | fewest hospitalization outcomes | 72 | 90 | associated with survival benefit
